Results on 20 compounds are retold here after patent publication US10399989B2, “Pyrazolopyrimidine derivatives as BTK inhibitors for the treatment of cancer” (Loxo Oncology, Inc., priority 2016, dated 2019).

Where two headings read alike, the source gives them in different places.

Assay [1] addresses BTK^WT (Homo sapiens (Human), UniProt Q06187). Briefly: BTK^WT binding affinity (TR-FRET, LanthaScreen). In outline:
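Tracer-displacement TR-FRET: 2.5 nM recombinant BTK, 2 nM Eu anti-His antibody and 15 nM Kinase Tracer 236 in Kinase Buffer A with inhibitor for 5 h. Emission read at 615/665 nm (excitation 340 nm); IC50 from variable-slope fit of log concentration vs response.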
For orientation: TR-FRET usually uses a lanthanide donor and a delayed reading to cut background.

Assay [2] has as its target EGFR (Homo sapiens (Human), UniProt P00533). Briefly: EGFR binding affinity (TR-FRET, LanthaScreen). The following applies: 5 h incubation. In outline:
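IC50 derived by variable-slope fit of TR-FRET signal (ex 340, em 615 and 665 nm) against inhibitor concentration. Mix contained recombinant GST-detected EGFR at 2.5 nM, Eu anti-GST antibody at 2 nM and Kinase Tracer 199 at 3 nM in Kinase Buffer A, 5 h incubation.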

Assay [3] has as its system OCI-Ly10 human DLBCL cells. The assay is described as follows: OCI-Ly10 anti-proliferative activity (Resazurin, 72 h). The note with it: read-out: Proliferation OCI-Ly10-IC50. Format: cell-based. In outline: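 Resazurin fluorescence (590 nm, 5 h dye incubation) read after 72 h compound exposure at 37 °C; NFκB-dependent cells seeded at 7.5×10^3/well in 2.5% FBS medium. Day 0 signal subtracted, values normalised to DMSO control; IC50 from log[inhibitor] vs response, variable-slope fit.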
(In general: Alamar Blue is a resazurin reagent that responds to reducing activity.)

Assay [4] concerns the target BTK^C481S (Homo sapiens (Human), UniProt Q06187, C481S). Briefly: BTK^C481S binding affinity (TR-FRET, LanthaScreen). The note with it: 5 h incubation. An outline of the steps: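 Tracer-displacement TR-FRET: 5 nM recombinant kinase, 2 nM Eu anti-His antibody and 30 nM Kinase Tracer 236 incubated 5 h with varying inhibitor in Kinase Buffer A. Read at 340 nm excitation, 615/665 nm emission. IC50 from log[inhibitor]–response variable-slope fit.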

Where [5] appears, read: TR-FRET binding, 5 h incubation, read-out: BTK^WT IC50.
[6] abbreviates: Table 6, numeric values, read-out: BTK Binding IC50.

Chain of EGFR (P00533 25-1210): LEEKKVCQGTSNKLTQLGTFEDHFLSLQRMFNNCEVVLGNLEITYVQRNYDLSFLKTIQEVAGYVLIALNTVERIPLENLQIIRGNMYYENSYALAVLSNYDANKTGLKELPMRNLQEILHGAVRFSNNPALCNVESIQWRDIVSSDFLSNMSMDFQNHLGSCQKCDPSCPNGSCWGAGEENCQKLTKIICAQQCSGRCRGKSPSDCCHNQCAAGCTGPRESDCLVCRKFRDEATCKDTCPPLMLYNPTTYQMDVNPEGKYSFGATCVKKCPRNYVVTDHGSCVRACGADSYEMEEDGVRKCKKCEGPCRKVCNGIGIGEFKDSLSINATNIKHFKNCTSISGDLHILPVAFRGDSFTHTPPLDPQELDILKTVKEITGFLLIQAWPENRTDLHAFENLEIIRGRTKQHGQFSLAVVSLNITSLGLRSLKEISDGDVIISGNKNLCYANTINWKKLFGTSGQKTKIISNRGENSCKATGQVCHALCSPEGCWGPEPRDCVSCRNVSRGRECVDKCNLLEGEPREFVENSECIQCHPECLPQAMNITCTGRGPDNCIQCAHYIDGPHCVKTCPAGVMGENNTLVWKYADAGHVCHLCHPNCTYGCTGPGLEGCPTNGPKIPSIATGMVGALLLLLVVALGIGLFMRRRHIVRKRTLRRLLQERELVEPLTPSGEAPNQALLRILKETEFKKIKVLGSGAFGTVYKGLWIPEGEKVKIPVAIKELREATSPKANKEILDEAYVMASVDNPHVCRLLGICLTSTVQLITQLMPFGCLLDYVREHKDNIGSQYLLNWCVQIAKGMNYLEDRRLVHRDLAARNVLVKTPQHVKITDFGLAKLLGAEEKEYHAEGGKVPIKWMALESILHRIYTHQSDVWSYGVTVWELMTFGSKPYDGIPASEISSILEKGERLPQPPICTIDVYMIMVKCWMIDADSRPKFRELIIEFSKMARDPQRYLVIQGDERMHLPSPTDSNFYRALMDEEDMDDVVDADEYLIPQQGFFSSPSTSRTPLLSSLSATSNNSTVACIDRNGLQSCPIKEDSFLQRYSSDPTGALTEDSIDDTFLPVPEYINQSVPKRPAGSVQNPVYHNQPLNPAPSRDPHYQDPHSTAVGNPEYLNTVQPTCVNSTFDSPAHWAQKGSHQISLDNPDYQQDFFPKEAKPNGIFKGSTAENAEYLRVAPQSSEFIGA
Chain of BTK^C481S (Q06187 whole entry C481S): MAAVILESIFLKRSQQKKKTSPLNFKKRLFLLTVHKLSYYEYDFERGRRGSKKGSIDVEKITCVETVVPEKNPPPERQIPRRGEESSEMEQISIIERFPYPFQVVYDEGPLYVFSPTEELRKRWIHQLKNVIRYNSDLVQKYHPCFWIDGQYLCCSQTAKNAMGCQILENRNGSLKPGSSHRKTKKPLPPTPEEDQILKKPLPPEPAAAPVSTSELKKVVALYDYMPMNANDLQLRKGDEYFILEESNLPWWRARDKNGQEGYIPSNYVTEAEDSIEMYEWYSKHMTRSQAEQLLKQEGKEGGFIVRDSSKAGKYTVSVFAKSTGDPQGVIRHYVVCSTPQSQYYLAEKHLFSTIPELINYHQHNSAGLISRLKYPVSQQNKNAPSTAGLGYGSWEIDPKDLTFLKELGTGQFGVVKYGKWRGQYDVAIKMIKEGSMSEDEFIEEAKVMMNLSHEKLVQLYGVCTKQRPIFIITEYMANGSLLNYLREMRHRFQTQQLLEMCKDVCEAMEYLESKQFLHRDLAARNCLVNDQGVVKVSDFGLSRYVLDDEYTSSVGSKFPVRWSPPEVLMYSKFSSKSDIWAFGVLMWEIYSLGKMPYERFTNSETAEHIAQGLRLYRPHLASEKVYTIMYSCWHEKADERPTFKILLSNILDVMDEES
Chain of BTK^WT (Q06187 whole entry): as the sequence (Q06187 whole entry C481S) above, with S481C counted along it

As to `COc1ccccc1C(=O)NCc1ccc(-c2nn([C@H]3C=C[C@H](F)C3)c3ncnc(N)c23)cc1` [Example 54, N-[(4-{4-amino-1-[(1R,4R)-4-fluorocyclopent-2-en-1-yl]-1H-pyrazolo[3,4-d]pyrimidin-3-yl}phenyl)methyl]-2-methoxybenzamide], the IC50 in assay [1] (setting [5]) was at most 10 nM; in assay [1] (setting [6]), 0.7 nM; in assay [2], 1000 to 10000 nM; in assay [3] (Homo sapiens, OCI-Ly10, 72 h) it was 100 to 1000 nM; in assay [4], at most 10 nM.
Turning to `COc1ccccc1C(=O)NCc1ccc(-c2nn(C3CCC(C)(O)CC3)c3ncnc(N)c23)cc1` (single isomer, unassigned) [Example 91, N-[[4-[4-amino-1-(4-hydroxy-4-methyl-cyclohexyl)pyrazolo[3,4-d]pyrimidin-3-yl]phenyl]methyl]-2-methoxy-benzamide], the IC50 in assay [1] (setting [5]) is at most 10 nM; in assay [2], 100 to 1000 nM; in assay [3] it was 100 to 1000 nM; in assay [4], at most 10 nM.
Take `COc1ccc2ccccc2c1C(=O)NCc1ccc(-c2nn(C3CCCC3)c3ncnc(N)c23)cc1` [Example 68, N-[[4-(4-amino-1-cyclopentyl-pyrazolo[3,4-d]pyrimidin-3-yl)phenyl]methyl]-2-methoxy-naphthalene-1-carboxamide]: the IC50 in assay [1] (setting [5]) lay in the range of 100 to 1000 nM; in assay [2], 1000 to 10000 nM; in assay [3] (Homo sapiens, OCI-Ly10, 72 h), 1000 to 10000 nM; in assay [4] it was 100 to 1000 nM.
Take `COc1ccccc1C(=O)NCc1ccc(-c2nn([C@@H]3CC[C@H](O)C3)c3ncnc(N)c23)cc1` (relative stereo) [Example 24, N-[[4-[4-amino-1-[(1R*,3S*)-3-hydroxycyclopentyl]pyrazolo[3,4-d]pyrimidin-3-yl]phenyl]methyl]-2-methoxy-benzamide]: the IC50 was at most 10 nM in assay [1] (setting [5]); 2.2 nM in assay [1] (setting [6]); 100 to 1000 nM in assay [2]; 10 to 100 nM in assay [3] (Homo sapiens, OCI-Ly10, 72 h); at most 10 nM in assay [4].
Consider `COCCNc1ncnc2c1c(-c1ccc(CNC(=O)c3ccccc3OC)cc1)nn2[C@H]1C=C[C@H](O)C1` [Example 58, N-[[4-[1-[(1R,4R)-4-hydroxycyclopent-2-en-1-yl]-4-(2-methoxyethylamino)pyrazolo[3,4-d]pyrimidin-3-yl]phenyl]methyl]-2-methoxy-benzamide], for which the IC50 is at most 10 nM in assay [1] (setting [5]); 1000 to 10000 nM in assay [2]; 100 to 1000 nM in assay [3] (Homo sapiens, OCI-Ly10, 72 h); at most 10 nM in assay [4].
With `COc1ccccc1C(=O)NCc1ccc(-c2nn([C@H]3C=C[C@@H](OC(=O)C(C)(C)C)C3)c3ncnc(N)c23)cc1` [Example 48, [(1S,4R)-4-[4-amino-3-[4-[[(2-methoxybenzoyl)amino]methyl]phenyl]pyrazolo[3,4-d]pyrimidin-1-yl]cyclopent-2-en-1-yl] 2,2-dimethylpropanoate], the IC50 in assay [1] (setting [5]) was 10 to 100 nM; in assay [2], 1000 to 10000 nM; in assay [3] (Homo sapiens, OCI-Ly10, 72 h), 100 to 1000 nM; in assay [4] it was at most 10 nM.
For the compound `COc1ccccc1C(=O)NCc1ccc(-c2nn(C3CCC(C(=O)N(C)C)CC3)c3ncnc(N)c23)cc1` (single isomer, unassigned; isomer 1) [33-isomer 1], the IC50 in assay [1] (setting [5]) was at most 10 nM; in assay [2] it was 100 to 1000 nM; in assay [3], 10 to 100 nM; in assay [4] it was at most 10 nM.
For `COc1ccccc1C(=O)NCc1ccc(-c2nn([C@H]3C=C[C@H](OC(C)=O)C3)c3ncnc(N)c23)cc1` [Example 35, [(1R,4R)-4-[4-amino-3-[4-[[(2-methoxybenzoyl)amino]methyl]phenyl]pyrazolo[3,4-d]pyrimidin-1-yl]cyclopent-2-en-1-yl] acetate], the IC50 was at most 10 nM in assay [1] (setting [5]); 10 to 100 nM in assay [2]; 10 to 100 nM in assay [3] (Homo sapiens, OCI-Ly10, 72 h); at most 10 nM in assay [4].
In the case of `COc1ccccc1C(=O)NCc1ccc(-c2nn(C3CCCC(C(=O)N(C)C)C3)c3ncnc(N)c23)cc1` (stereo not shown) [Example 42, N-[[4-[4-amino-1-[3-(dimethylcarbamoyl)cyclohexyl]pyrazolo[3,4-d]pyrimidin-3-yl]phenyl]methyl]-2-methoxy-benzamide], the IC50 is at most 10 nM in assay [1] (setting [5]); 1000 to 10000 nM in assay [2]; 100 to 1000 nM in assay [3] (Homo sapiens, OCI-Ly10, 72 h); at most 10 nM in assay [4].
As to `COc1ccccc1C(=O)NCc1ccc(-c2nn(C3CCCC3)c3ncnc(N)c23)c(OC)c1` [Example 77, N-[[4-(4-Amino-1-cyclopentyl-pyrazolo[3,4-d]pyrimidin-3-yl)-3-methoxy-phenyl]methyl]-2-methoxy-benzamide], the IC50 in assay [1] (setting [5]) is at most 10 nM; in assay [2], over 10000 nM; in assay [3] (Homo sapiens, OCI-Ly10, 72 h) it was 10 to 100 nM; in assay [4], at most 10 nM.
As for `COc1ccccc1C(=O)NCc1ccc(-c2nn([C@H]3C=C[C@H](n4ccnn4)C3)c3ncnc(N)c23)cc1` [Example 61, N-[[4-[4-amino-1-[(1R,4R)-4-(triazol-1-yl)cyclopent-2-en-1-yl]pyrazolo[3,4-d]pyrimidin-3-yl]phenyl]methyl]-2-methoxy-benzamide], the IC50 in assay [1] (setting [5]) was at most 10 nM; in assay [2], 1000 to 10000 nM; in assay [3] (Homo sapiens, OCI-Ly10, 72 h), 100 to 1000 nM; in assay [4], at most 10 nM.
With `COc1ccccc1C(=O)NCc1ccc(-c2nn(C3CCCC3)c3ncnc(N)c23)cc1C` [Example 89, N-[[4-(4-Amino-1-cyclopentyl-pyrazolo[3,4-d]pyrimidin-3-yl)-2-methyl-phenyl]methyl]-2-methoxy-benzamide], the IC50 was at most 10 nM in assay [1] (setting [5]); 100 to 1000 nM in assay [2]; 100 to 1000 nM in assay [3] (Homo sapiens, OCI-Ly10, 72 h); at most 10 nM in assay [4].
`COc1ccccc1C(=O)NCc1ccc(-c2nn([C@H]3C=C[C@H](O)C3)c3ncnc(N)c23)cc1` [Example 36, N-[[4-[4-amino-1-[(1R,4R)-4-hydroxycyclopent-2-en-1-yl]pyrazolo[3,4-d]pyrimidin-3-yl]phenyl]methyl]-2-methoxy-benzamide]: the IC50 is at most 10 nM in assay [1] (setting [5]); 100 to 1000 nM in assay [2]; 100 to 1000 nM in assay [3] (Homo sapiens, OCI-Ly10, 72 h); at most 10 nM in assay [4].
For the compound `COc1ccccc1C(=O)NCc1ccc(-c2nn(C3CC=CC3)c3ncnc(N)c23)cc1` [Example 40, N-[[4-(4-amino-1-cyclopent-3-en-1-yl-pyrazolo[3,4-d]pyrimidin-3-yl)phenyl]methyl]-2-methoxy-benzamide], the IC50 was at most 10 nM in assay [1] (setting [5]); 100 to 1000 nM in assay [2]; 10 to 100 nM in assay [3] (Homo sapiens, OCI-Ly10, 72 h); at most 10 nM in assay [4].
As for `Nc1ncnc2c1c(-c1ccc(CNC(=O)c3nccc4ccccc34)cc1)nn2C1CCCC1` [Example 69, N-[[4-(4-amino-1-cyclopentyl-pyrazolo[3,4-d]pyrimidin-3-yl)phenyl]methyl]isoquinoline-1-carboxamide], the IC50 fell in the range of 100 to 1000 nM in assay [1] (setting [5]); 1000 to 10000 nM in assay [2]; 1000 to 10000 nM in assay [3] (Homo sapiens, OCI-Ly10, 72 h); 100 to 1000 nM in assay [4].
With `COc1ccc(F)cc1C(=O)NCc1ccc(-c2nn(C3CCC(C)(O)CC3)c3ncnc(N)c23)cc1` (single isomer, unassigned) [Example 94, N-[[4-[4-Amino-1-(4-hydroxy-4-methyl-cyclohexyl)pyrazolo[3,4-d]pyrimidin-3-yl]phenyl]methyl]-5-fluoro-2-methoxy-benzamide], the IC50 in assay [1] (setting [5]) is at most 10 nM; in assay [2] it was 100 to 1000 nM; in assay [3] (Homo sapiens, OCI-Ly10, 72 h), 10 to 100 nM; in assay [4] it was at most 10 nM.
As for `COc1ccccc1C(=O)NCc1ccc(-c2nn([C@H]3C=C[C@H](N)C3)c3ncnc(N)c23)cc1` [Example 59, N-[(4-{4-amino-1-[(1R,4R)-4-aminocyclopent-2-en-1-yl]-1H-pyrazolo[3,4-d]pyrimidin-3-yl}phenyl)methyl]-2-methoxybenzamide], the IC50 in assay [1] (setting [5]) lay in the range of 10 to 100 nM; in assay [2] it was 1000 to 10000 nM; in assay [3] (Homo sapiens, OCI-Ly10, 72 h), 100 to 1000 nM; in assay [4], 10 to 100 nM.
As to `COc1ccccc1C(=O)NCc1ccc(-c2nn(C3CCCO3)c3ncnc(N)c23)cc1` (stereo not shown) [Example 5, N-[[4-(4-amino-1-tetrahydrofuran-2-yl-pyrazolo[3,4-d]pyrimidin-3-yl)phenyl]methyl]-2-methoxy-benzamide], the IC50 in assay [1] (setting [5]) was 10 to 100 nM; in assay [2], 1000 to 10000 nM; in assay [3] (Homo sapiens, OCI-Ly10, 72 h) it was 100 to 1000 nM; in assay [4], 10 to 100 nM.
With `COc1ccccc1C(=O)NCc1ccc(-c2nn([C@@H]3C=C[C@H](O)C3)c3ncnc(N)c23)cc1` [Example 44, N-[[4-[4-amino-1-[(1S,4R)-4-hydroxycyclopent-2-en-1-yl]pyrazolo[3,4-d]pyrimidin-3-yl]phenyl]methyl]-2-methoxy-benzamide], the IC50 was at most 10 nM in assay [1] (setting [5]); 1000 to 10000 nM in assay [2]; 100 to 1000 nM in assay [3] (Homo sapiens, OCI-Ly10, 72 h); at most 10 nM in assay [4].
Take `COc1ccccc1C(=O)NCc1ccc(-c2nn(CC(C)C)c3ncnc(N)c23)cc1` [Example 76, N-[[4-(4-amino-1-isobutyl-pyrazolo[3,4-d]pyrimidin-3-yl)phenyl]methyl]-2-methoxy-benzamide]: the IC50 in assay [1] (setting [5]) is at most 10 nM; in assay [2] it was 100 to 1000 nM; in assay [3] (Homo sapiens, OCI-Ly10, 72 h), 100 to 1000 nM; in assay [4], at most 10 nM.
